Reference: US20230243822A1, “MOLECULAR DISEASE PROFILE AND USE THEREOF FOR MONITORING AND TREATING RHEUMATAOID ARTHRITIS” (JANSSEN BIOTECH, INC., priority 2020, published 2023)

How the values were obtained:
[1] = test system: RA patients; conditions: RA patients; cited from earlier work
[2] = test system: 4-analyte M-DP panel (CRP, CXCL10, CXCL13, SAA); test: Pharmacodynamic M-DP score, 4-analyte panel CRP, CXCL10, CXCL13, SAA (SOMAscan), clinical studies in RA; format: in vivo, human; conditions: for M-DP score mean ± SD, All treated / M-DP score mean difference ± SD, Good vs. No / M-DP score mean ± SD, DAS28-CRP response group Good / M-DP score mean ± SD, DAS28-CRP response group Moderate / M-DP score mean ± SD, DAS28-CRP response group No: 4-analyte; for M-DP score mean difference ± SD, Good vs. No / M-DP score mean ± SD, DAS28-CRP response group Good / M-DP score mean ± SD, DAS28-CRP response group Moderate / M-DP score mean ± SD, DAS28-CRP response group No: response at week 24
Description: (§1) Serum samples and data from eight interventional clinical studies with seven different active treatments for RA or placebo treatment were obtained and analyzed: sirukumab (anti-IL-6) and placebo treatments in SIRROUND-M (NCT01689532; Takeuchi T, et al. Arthritis Res Ther. 2018 Mar. 7; 20(1): 42), SIRROUND-D (NCT01604343; Takeuchi T, et al. Ann Rheum Dis. 2017 Dec.; 76(12): 2001-2008), and SIRROUND-T (NCT01606761; Aletaha D, et al. Lancet. 2017 Mar. 25; 389(10075): 1206-1217); sirukumab and adalimumab (anti-TNF-alpha) treatments in SIRROUND-H (NCT02019472; Taylor PC, et al. Ann Rheum Dis. 2018 May; 77(5): 658-666); golimumab (anti-TNF-alpha) treatment in GO-FURTHER (NCT00973479; Weinblatt ME, et al. Ann Rheum Dis. 2013 March; 72(3): 381-9); guselkumab (anti-IL-23p19), ustekinumab (anti-IL-12/IL-23p40), and placebo treatments in CNTO1275ARA2001 (NCT01645280; Cox JD, et al. […]); JNJ-40346527 (colony-stimulating factor-1 inhibitor) and placebo treatments in 40346527ARA2001 (NCT01597739; Genovese MC, et al. J Rheumatol. 2015 October; 42(10): 1752-60). Plasma samples were obtained from the RA-MAP TACERA study (Cope AP, et al. Nat Rev Rheumatol. 2018 January; 14(1): 53-60) before (baseline) and 6-months after initiation of conventional synthetic disease-modifying anti-rheumatic drugs (csDMARDs). Details of treatment dose groups, concomitant methotrexate use, and previous experience with csDMARDs and biologics are reported in Table 1. The studies were conducted in accordance with the Declaration of Helsinki. The study protocols were reviewed and approved by an independent ethics committee or institutional review board for each study center. Written informed consent was obtained from all patients before study entry. Additional study details and patient characteristics are available in the referenced publications for each study. For SIRROUND-D and SIRROUND-T studies, sets of serum samples from demographically-matched healthy controls were obtained from commercial sources (BioIVT, Westbury, N.Y.).
(§2) Serum samples from baseline (week 0) and the time points indicated in Table 1 were provided for quantification of 1189 serum analytes using the SomaScan v3.1 platform (SomaLogic, Boulder, Colo.; www.somalogic.com), with the exception of RA-MAP TACERA, for which plasma samples were analyzed for 1301 analytes using the SomaScan v3.2 platform. For some studies, a redacted dataset reporting data for a subset of the analytes was obtained. Relative fluorescence unit (RFU) data were sequentially normalized for hybridization controls (internal standards per samples), median signal across all samples (assumes same total protein concentration across sample set), and calibration controls (common sample standards across analysis plates). Samples failed quality control standards defined by Somalogic were excluded from analyses. The normalized RFU values were log2-transformed for subsequent analyses.
(§3) Changes in analyte expression levels were calculated for individual samples as the log2 transform of the ratio of the analyte level at the indicated time point (visit level) over the analyte level at baseline (baseline level) for a given subject, i.e., log 2(visit level/baseline level). Changes in RA disease-associated analytes per sample were summarized using a pharmacodynamic (PD) molecular disease profile (M-DP) score, defined as the median value of the log 2(visit level/baseline level) values for analytes in the defined M-DP analyte set. […] PD M-DP scores in the log 2(visit level/baseline level) scale can be transformed to percent change from baseline, using the transformation: (2^M-DP score−1)×100%.
In selecting the best minimal set of analytes that performs similarly to the full 14-analyte set, analyte sets that results in significant associations between DAS28-CRP EULAR good vs. no response with p<0.05 for each study were prioritized (Table 4). […]

[3] = test system: 14-analyte M-DP panel; test: Pharmacodynamic M-DP score, 14-analyte panel (SomaLogic SOMAscan), clinical studies in RA; format: in vivo, human; conditions: for M-DP score mean difference ± SD, Good vs. No / M-DP score mean ± SD, DAS28-CRP response group Good / M-DP score mean ± SD, DAS28-CRP response group Moderate / M-DP score mean ± SD, DAS28-CRP response group No: response at week 24
Description: as §1, §2, §3
Statistical analyses were performed on log2-transformed data, for either normalized Relative fluorescence unit (RFU) datasets or within-subject fold/baseline datasets. Significance of differences between groups was evaluated using General Linear Models, with t-tests when comparing two groups. […]

[4] = CNTO1275ARA2001, score at week 4, ustekinumab SC 90 mg or guselkumab SC 50 or 200 mg
[5] = CNTO1275ARA2001, score at week 28, ustekinumab SC 90 mg or guselkumab SC 50 or 200 mg
[6] = GO-FURTHER, score at week 14, golimumab IV 2 mg/kg weeks 0, 4, then q8w plus methotrexate
[7] = GO-FURTHER, score at week 14, golimumab IV 2 mg/kg

**Q.** With ustekinumab [reference compound] as the substance, how does the “clinical efficacy in the underlying clinical studies” value [1] read?
**A.** not clinically efficacious

**Q.** What about the “M-DP score mean ± SD, All treated” value [2, 4] of the same substance?
**A.** −0.05 ± 0.77 log2 (fold/baseline)

**Q.** And the “M-DP score mean difference ± SD, Good vs. No” value [2, 4]?
**A.** −0.81 ± 0.83 (0.0469) log2 (fold/baseline)

**Q.** What about the “M-DP score mean ± SD, DAS28-CRP response group Good” value [2, 4] of the same substance?
**A.** −0.49 ± 0.27 log2 (fold/baseline)

**Q.** And the “M-DP score mean ± SD, DAS28-CRP response group Moderate” value [2, 4]?
**A.** 0.06 ± 0.41 log2 (fold/baseline)

**Q.** And the “M-DP score mean ± SD, DAS28-CRP response group No” value [2, 4]?
**A.** 0.33 ± 0.98 log2 (fold/baseline)

**Q.** And the “M-DP score mean ± SD, All treated” value [2, 5]?
**A.** 0.04 ± 0.84 log2 (fold/baseline)

**Q.** And the “M-DP score mean difference ± SD, Good vs. No” value [2, 5]?
**A.** −0.94 ± 0.82 (0.0323) log2 (fold/baseline)

**Q.** And the “M-DP score mean ± SD, DAS28-CRP response group Good” value [2, 5]?
**A.** −0.53 ± 0.68 log2 (fold/baseline)

**Q.** What about the “M-DP score mean ± SD, DAS28-CRP response group Moderate” value [2, 5] of the same substance?
**A.** −0.04 ± 0.53 log2 (fold/baseline)

**Q.** And the “M-DP score mean ± SD, DAS28-CRP response group No” value [2, 5]?
**A.** 0.41 ± 0.94 log2 (fold/baseline)

**Q.** And the “M-DP score effect size (decrease), EULAR DAS28-CRP good responders” value ([2]; week 4 M-DP scores)?
**A.** > 1.0 standard deviation

**Q.** What about the “M-DP score mean ± SD, All treated” value [3, 4] of the same substance?
**A.** −0.08 ± 0.34 log2 (fold/baseline)

**Q.** And the “M-DP score mean difference ± SD, Good vs. No” value [3, 4]?
**A.** −0.32 ± 0.32 log2 (fold/baseline)

**Q.** What about the “M-DP score mean ± SD, DAS28-CRP response group Good” value [3, 4] of the same substance?
**A.** −0.24 ± 0.34 log2 (fold/baseline)

**Q.** What about the “M-DP score mean ± SD, DAS28-CRP response group Moderate” value [3, 4] of the same substance?
**A.** −0.04 ± 0.29 log2 (fold/baseline)

**Q.** What about the “M-DP score mean ± SD, DAS28-CRP response group No” value [3, 4] of the same substance?
**A.** 0.08 ± 0.31 [31] log2 (fold/baseline)

**Q.** And the “M-DP score mean ± SD, All treated” value [3, 5]?
**A.** −0.09 ± 0.43 log2 (fold/baseline)

**Q.** And the “M-DP score mean difference ± SD, Good vs. No” value [3, 5]?
**A.** −0.49 ± 0.41 log2 (fold/baseline)

**Q.** And the “M-DP score mean ± SD, DAS28-CRP response group Good” value [3, 5]?
**A.** −0.34 ± 0.33 log2 (fold/baseline)

**Q.** What about the “M-DP score mean ± SD, DAS28-CRP response group Moderate” value [3, 5] of the same substance?
**A.** −0.05 ± 0.23 log2 (fold/baseline)

**Q.** And the “M-DP score mean ± SD, DAS28-CRP response group No” value [3, 5]?
**A.** −0.15 ± 0.49 [13] log2 (fold/baseline)

**Q.** And the “GMean M-DP scores, change” value ([3]; week 4 or latest time point evaluated (weeks 28, 28, and 12, respectively))?
**A.** not decreased

**Q.** Which results are given for golimumab [reference compound]?
**A.** clinical efficacy in the underlying clinical studies [1]: clinically efficacious; M-DP score mean ± SD, All treated [2, 6]: −0.94 ± 0.63 log2 (fold/baseline); M-DP score mean difference ± SD, Good vs. No [2, 7]: −0.56 ± 0.55 (0.0003) log2 (fold/baseline); M-DP score mean ± SD, DAS28-CRP response group Good [2, 7]: −1.13 ± 0.61 log2 (fold/baseline); M-DP score mean ± SD, DAS28-CRP response group Moderate [2, 7]: −0.94 ± 0.68 log2 (fold/baseline); M-DP score mean ± SD, DAS28-CRP response group No [2, 7]: −0.57 ± 0.43 log2 (fold/baseline); M-DP score decrease, good response subgroup ([2]; golimumab treatment data): 54%; M-DP score decrease, no response subgroup ([2]; golimumab treatment data): 33%; M-DP score decrease ([3]; GO-FURTHER, 14-weeks treatment, golimumab IV): 26%; M-DP score mean ± SD, All treated [3, 6]: −0.44 ± 0.37 log2 (fold/baseline); M-DP score mean difference ± SD, Good vs. No [3, 7]: −0.35 ± 0.35 log2 (fold/baseline); M-DP score mean ± SD, DAS28-CRP response group Good [3, 7]: −0.56 ± 0.39 log2 (fold/baseline); M-DP score mean ± SD, DAS28-CRP response group Moderate [3, 7]: −0.45 ± 0.34 log2 (fold/baseline); M-DP score mean ± SD, DAS28-CRP response group No [3, 7]: −0.21 ± 0.27 [22] * log2 (fold/baseline)
